Patent US6936585B2, “Corticotropin releasing factor 2 receptor agonists” (priority 2002, dated 2005)
Peptide text beside a SMILES is read from it.

Assays:
CRF1R = biological target: T1, CRF1R (Homo sapiens, UniProt P34998); experiment: CRF1R agonist activation (EC50 / Emax), called comparative CRF binding; assay type: cell-based; conditions: for Emax: read-out: CRF1R Emax; for EC50: read-out: CRF1R EC50
T1 sequence (P34998 24-415): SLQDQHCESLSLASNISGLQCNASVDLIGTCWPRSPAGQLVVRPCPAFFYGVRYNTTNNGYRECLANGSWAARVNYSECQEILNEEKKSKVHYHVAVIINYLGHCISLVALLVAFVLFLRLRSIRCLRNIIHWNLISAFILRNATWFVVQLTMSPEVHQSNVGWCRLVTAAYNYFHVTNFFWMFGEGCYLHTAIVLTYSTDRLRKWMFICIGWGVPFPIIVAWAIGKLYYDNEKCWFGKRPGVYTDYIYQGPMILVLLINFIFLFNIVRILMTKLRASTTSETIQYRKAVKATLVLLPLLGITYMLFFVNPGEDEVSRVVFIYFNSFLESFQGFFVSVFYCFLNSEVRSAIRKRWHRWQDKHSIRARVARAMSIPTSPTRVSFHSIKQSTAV
Outline: (§1)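 Agonism at each human CRF receptor subtype is inferred from increased cAMP relative to vehicle, using cells expressing that subtype and either lysate cAMP measurement or a cAMP response element reporter.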

CRF2R = biological target: T2, CRF2R (Homo sapiens, UniProt Q13324); experiment: CRF2R agonist activation (EC50 / Emax), called comparative CRF binding; assay type: cell-based; conditions: for Emax: read-out: CRF2R Emax; for EC50: read-out: CRF2R EC50
T2 sequence (Q13324 1-411): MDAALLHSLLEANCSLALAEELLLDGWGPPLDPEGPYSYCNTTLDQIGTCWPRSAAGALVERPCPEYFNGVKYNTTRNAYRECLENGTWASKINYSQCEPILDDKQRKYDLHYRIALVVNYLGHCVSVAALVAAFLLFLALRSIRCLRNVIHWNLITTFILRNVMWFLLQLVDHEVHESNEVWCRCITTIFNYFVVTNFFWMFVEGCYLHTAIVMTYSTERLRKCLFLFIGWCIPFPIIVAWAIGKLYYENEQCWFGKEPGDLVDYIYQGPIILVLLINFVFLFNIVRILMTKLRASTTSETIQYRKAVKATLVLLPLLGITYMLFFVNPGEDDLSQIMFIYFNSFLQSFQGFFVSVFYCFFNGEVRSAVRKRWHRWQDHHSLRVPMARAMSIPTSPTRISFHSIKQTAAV
Outline: as §1

SMILES	Emax (CRF1R) [%]	Emax (CRF2R) [%]	EC50 (CRF1R) [nM]	EC50 (CRF2R) [nM]
CC[C@H](C)[C@H](NC(=O)[C@H](CCCNC(=N)N)NC(=O)[C@H](C)NC(=O)[C@H](CC(N)=O)NC(=O)[C@H](CCC(N)=O)NC(=O)[C@H](CCC(=O)O)NC(=O)[C@H](C)NC(=O)[C@H](CCCNC(=N)N)NC(=O)[C@H](CCC(=O)O)NC(=O)[C@H](CCCNC(=N)N)NC(=O)[C@H](CCC(N)=O)NC(=O)[C@H](CO)NC(=O)[C@H](CCC(N)=O)NC(=O)[C@@H](NC(=O)[C@H](CCCNC(=N)N)NC(=O)[C@H](C)NC(=O)[C@H](CC(C)C)NC(=O)[C@H](CCC(=O)O)NC(=O)[C@H](CC(C)C)NC(=O)[C@H](CC(C)C)NC(=O)[C@@H](NC(=O)[C@H](CCCNC(=N)N)NC(=O)[C@H](CC(C)C)NC(=O)[C@H](CC(C)C)NC(=O)[C@H](Cc1ccccc1)NC(=O)[C@H](CC(C)C)NC(=O)[C@@H]1CCCN1C(=O)[C@H](CC(C)C)NC(=O)[C@H](CC(=O)O)NC(=O)[C@@H](NC(=O)[C@H](CO)NC(=O)[C@H](CC(C)C)NC(=O)[C@H](CO)NC(=O)[C@@H]1CCCN1C(=O)[C@H](CC(N)=O)NC(=O)[C@@H](N)CC(=O)O)[C@@H](C)CC)[C@@H](C)O)[C@@H](C)O)C(=O)N[C@@H](Cc1ccccc1)C(=O)N[C@@H](C)C(=O)N[C@@H](CCCNC(=N)N)C(=O)N[C@H](C(N)=O)C(C)C [compound 329] (H-DNPSLSIDLPLFLLRTLLELARTQSQRERAEQNARIFARV-NH2; N-terminus assumed)	98.4	98.3		
CC[C@H](C)[C@H](NC(=O)[C@H](CCCNC(=N)N)NC(=O)[C@H](C)NC(=O)[C@H](CC(N)=O)NC(=O)[C@H](CCC(N)=O)NC(=O)[C@H](CCC(=O)O)NC(=O)[C@H](C)NC(=O)[C@H](CCCNC(=N)N)NC(=O)[C@H](CCC(=O)O)NC(=O)[C@H](CCCNC(=N)N)NC(=O)[C@H](CCC(N)=O)NC(=O)[C@H](CO)NC(=O)[C@H](CCC(N)=O)NC(=O)[C@@H](NC(=O)[C@H](CCCNC(=N)N)NC(=O)[C@H](C)NC(=O)[C@H](CC(C)C)NC(=O)[C@H](CCC(=O)O)NC(=O)[C@H](CC(C)C)NC(=O)[C@H](CC(C)C)NC(=O)[C@@H](NC(=O)[C@H](CCCNC(=N)N)NC(=O)[C@H](CC(C)C)NC(=O)[C@H](CC(C)C)NC(=O)[C@@H](NC(=O)[C@H](CC(C)C)NC(=O)[C@@H]1CCCN1C(=O)[C@H](CC(C)C)NC(=O)[C@H](CC(=O)O)NC(=O)[C@@H](NC(=O)[C@H](CO)NC(=O)[C@H](CC(C)C)NC(=O)[C@H](CO)NC(=O)[C@@H]1CCCN1C(=O)[C@H](CC(N)=O)NC(=O)[C@@H](N)CC(=O)O)[C@@H](C)CC)[C@@H](C)CC)[C@@H](C)O)[C@@H](C)O)C(=O)N[C@@H](Cc1ccccc1)C(=O)N[C@@H](C)C(=O)N[C@@H](CCCNC(=N)N)C(=O)N[C@H](C(N)=O)C(C)C [compound 330] (H-DNPSLSIDLPLILLRTLLELARTQSQRERAEQNARIFARV-NH2; N-terminus assumed)	86.8	93.7	≥ 1000	6
CC[C@H](C)[C@H](NC(=O)[C@H](CCCNC(=N)N)NC(=O)[C@H](C)NC(=O)[C@H](CC(N)=O)NC(=O)[C@H](CCC(N)=O)NC(=O)[C@H](CCC(=O)O)NC(=O)[C@H](C)NC(=O)[C@H](CCCNC(=N)N)NC(=O)[C@H](CCC(=O)O)NC(=O)[C@H](CCCNC(=N)N)NC(=O)[C@H](CCC(N)=O)NC(=O)[C@H](CO)NC(=O)[C@H](CCC(N)=O)NC(=O)[C@@H](NC(=O)[C@H](CCCCN)NC(=O)[C@H](CCC(=O)O)NC(=O)[C@H](CC(C)C)NC(=O)[C@H](CCC(=O)O)NC(=O)[C@H](CC(C)C)NC(=O)[C@H](CC(C)C)NC(=O)[C@@H](NC(=O)[C@H](CCCNC(=N)N)NC(=O)[C@H](CC(C)C)NC(=O)[C@H](CC(C)C)NC(=O)[C@H](Cc1ccccc1)NC(=O)[C@H](CC(C)C)NC(=O)[C@@H]1CCCN1C(=O)[C@H](CC(C)C)NC(=O)[C@H](CC(=O)O)NC(=O)[C@@H](NC(=O)[C@H](CO)NC(=O)[C@H](CC(C)C)NC(=O)[C@H](CO)NC(=O)[C@@H]1CCCN1)[C@@H](C)CC)[C@@H](C)O)[C@@H](C)O)C(=O)N[C@@H](Cc1ccccc1)C(=O)N[C@@H](C)C(=O)N[C@@H](CCCNC(=N)N)C(=O)N[C@H](C(N)=O)C(C)C [compound 331] (H-PSLSIDLPLFLLRTLLELEKTQSQRERAEQNARIFARV-NH2; N-terminus assumed)	78.7	100		
CC[C@H](C)[C@H](NC(=O)[C@H](CCCNC(=N)N)NC(=O)[C@H](C)NC(=O)[C@H](CC(N)=O)NC(=O)[C@H](CCC(N)=O)NC(=O)[C@H](CCC(=O)O)NC(=O)[C@H](C)NC(=O)[C@H](CCCNC(=N)N)NC(=O)[C@H](CCC(=O)O)NC(=O)[C@H](CCCNC(=N)N)NC(=O)[C@H](CCC(N)=O)NC(=O)[C@H](CO)NC(=O)[C@H](CCC(N)=O)NC(=O)[C@@H](NC(=O)[C@H](CCCCN)NC(=O)[C@H](CCC(=O)O)NC(=O)[C@H](CC(C)C)NC(=O)[C@H](CCC(=O)O)NC(=O)[C@H](CC(C)C)NC(=O)[C@H](CC(C)C)NC(=O)[C@@H](NC(=O)[C@H](CCCNC(=N)N)NC(=O)[C@H](CC(C)C)NC(=O)[C@H](CC(C)C)NC(=O)[C@@H](NC(=O)[C@H](CC(C)C)NC(=O)[C@@H]1CCCN1C(=O)[C@H](CC(C)C)NC(=O)[C@H](CC(=O)O)NC(=O)[C@@H](NC(=O)[C@H](CO)NC(=O)[C@H](CC(C)C)NC(=O)[C@H](CO)NC(=O)[C@@H]1CCCN1)[C@@H](C)CC)[C@@H](C)CC)[C@@H](C)O)[C@@H](C)O)C(=O)N[C@@H](Cc1ccccc1)C(=O)N[C@@H](C)C(=O)N[C@@H](CCCNC(=N)N)C(=O)N[C@H](C(N)=O)C(C)C [compound 332] (H-PSLSIDLPLILLRTLLELEKTQSQRERAEQNARIFARV-NH2; N-terminus assumed)	61.3	100		
CC[C@H](C)[C@H](NC(=O)[C@H](CCCNC(=N)N)NC(=O)[C@H](C)NC(=O)[C@H](CC(N)=O)NC(=O)[C@H](CCC(N)=O)NC(=O)[C@H](CCC(=O)O)NC(=O)[C@H](C)NC(=O)[C@H](CCCNC(=N)N)NC(=O)[C@H](CCC(=O)O)NC(=O)[C@H](CCCNC(=N)N)NC(=O)[C@H](CCC(N)=O)NC(=O)[C@H](CO)NC(=O)[C@H](CCC(N)=O)NC(=O)[C@@H](NC(=O)[C@H](CCCCN)NC(=O)[C@H](CCC(=O)O)NC(=O)[C@H](CC(C)C)NC(=O)[C@H](CCC(=O)O)NC(=O)[C@H](CC(C)C)NC(=O)[C@H](CC(C)C)NC(=O)[C@@H](NC(=O)[C@H](CCCNC(=N)N)NC(=O)[C@H](CC(C)C)NC(=O)[C@H](CC(C)C)NC(=O)[C@H](CC(C)C)NC(=O)[C@H](CC(C)C)NC(=O)[C@@H]1CCCN1C(=O)[C@H](CC(C)C)NC(=O)[C@H](CC(=O)O)NC(=O)[C@@H](NC(=O)[C@H](CO)NC(=O)[C@H](CC(C)C)NC(=O)[C@H](CO)NC(=O)[C@@H]1CCCN1)[C@@H](C)CC)[C@@H](C)O)[C@@H](C)O)C(=O)N[C@@H](Cc1ccccc1)C(=O)N[C@@H](C)C(=O)N[C@@H](CCCNC(=N)N)C(=O)N[C@H](C(N)=O)C(C)C [compound 333] (H-PSLSIDLPLLLLRTLLELEKTQSQRERAEQNARIFARV-NH2; N-terminus assumed)	43.8	96.9	≥ 1000	9.85
CC[C@H](C)[C@H](NC(=O)[C@H](CCCNC(=N)N)NC(=O)[C@H](C)NC(=O)[C@H](CC(N)=O)NC(=O)[C@H](CCC(N)=O)NC(=O)[C@H](CCC(=O)O)NC(=O)[C@H](C)NC(=O)[C@H](CCCNC(=N)N)NC(=O)[C@H](CCC(=O)O)NC(=O)[C@H](CCCNC(=N)N)NC(=O)[C@H](CCC(N)=O)NC(=O)[C@H](CO)NC(=O)[C@H](CCC(N)=O)NC(=O)[C@@H](NC(=O)[C@H](CCCCN)NC(=O)[C@H](CCC(=O)O)NC(=O)[C@H](CC(C)C)NC(=O)[C@H](CCC(=O)O)NC(=O)[C@H](CC(C)C)NC(=O)[C@H](CC(C)C)NC(=O)[C@@H](NC(=O)[C@H](CCCNC(=N)N)NC(=O)[C@H](CC(C)C)NC(=O)[C@H](CC(C)C)NC(=O)[C@H](Cc1ccccc1)NC(=O)[C@H](CC(C)C)NC(=O)[C@@H]1CCCN1C(=O)[C@H](CC(C)C)NC(=O)[C@H](CC(=O)O)NC(=O)[C@@H](NC(=O)[C@H](CO)NC(=O)[C@H](CC(C)C)NC(=O)[C@H](CO)NC(=O)[C@@H]1CCCN1C(=O)[C@H](CC(N)=O)NC(=O)[C@@H](N)CC(=O)O)[C@@H](C)CC)[C@@H](C)O)[C@@H](C)O)C(=O)N[C@@H](Cc1ccccc1)C(=O)N[C@@H](C)C(=O)N[C@@H](CCCNC(=N)N)C(=O)N[C@H](C(N)=O)C(C)C [compound 334] (H-DNPSLSIDLPLFLLRTLLELEKTQSQRERAEQNARIFARV-NH2; N-terminus assumed)	82.6	93.5	≥ 1000	13.2
